Data from ChEMBL document CHEMBL5113482, “Discovery of fused benzimidazole-imidazole autophagic flux inhibitors for treatment of triple-negative breast cancer” (Eur J Med Chem, 2022).
Activity calls are given as the source filed them.

Key:
MDA-MB-231 [1] = experiment: Cell cycle arrest in human MDA-MB-231 cells assessed as increase in p21 expression measured after 48 hrs by Western blot analysis; type: functional, cell-based; settings: dose 5-20 µM, DDE = dose-dependent effect
MDA-MB-231 [2] = experiment: Inhibition of autophagic flux in human MDA-MB-231 cells assessed as increase in nuclear p62 expression measured after 48 hrs by Western blot analysis; type: functional, cell-based; settings: dose 5-20 µM, DDE = dose-dependent effect
MDA-MB-468 [3] = experiment: Cell cycle arrest in human MDA-MB-468 cells assessed as increase in accumulation at S-phase at 5 to 20 uM measured after 48 hrs by propidium iodide staining based flow cytometry; type: functional; settings: dose 5-20 µM
MDA-MB-468 [4] = experiment: Inhibition of colony formation in human MDA-MB-468 cells at 5 to 20 umol/l pretreated for 48 hrs followed by replacement of fresh medium and measured after 15 days by crystal violet staining based assay; type: functional, cell-based; settings: dose 5-20 µmol/L
Nibrin (Homo sapiens) = target: T1, Nibrin (Homo sapiens) (UniProt O60934); experiment: Activation of NBS1 phosphorylation in human MDA-MB-231 cells at 5 to 20 uM measured after 6 to 48 hrs by Western blot analysis; type: cell-based; settings: filed as activator, dose 5-20 µM, time 6-48 hrs
T1 sequence (whole entry): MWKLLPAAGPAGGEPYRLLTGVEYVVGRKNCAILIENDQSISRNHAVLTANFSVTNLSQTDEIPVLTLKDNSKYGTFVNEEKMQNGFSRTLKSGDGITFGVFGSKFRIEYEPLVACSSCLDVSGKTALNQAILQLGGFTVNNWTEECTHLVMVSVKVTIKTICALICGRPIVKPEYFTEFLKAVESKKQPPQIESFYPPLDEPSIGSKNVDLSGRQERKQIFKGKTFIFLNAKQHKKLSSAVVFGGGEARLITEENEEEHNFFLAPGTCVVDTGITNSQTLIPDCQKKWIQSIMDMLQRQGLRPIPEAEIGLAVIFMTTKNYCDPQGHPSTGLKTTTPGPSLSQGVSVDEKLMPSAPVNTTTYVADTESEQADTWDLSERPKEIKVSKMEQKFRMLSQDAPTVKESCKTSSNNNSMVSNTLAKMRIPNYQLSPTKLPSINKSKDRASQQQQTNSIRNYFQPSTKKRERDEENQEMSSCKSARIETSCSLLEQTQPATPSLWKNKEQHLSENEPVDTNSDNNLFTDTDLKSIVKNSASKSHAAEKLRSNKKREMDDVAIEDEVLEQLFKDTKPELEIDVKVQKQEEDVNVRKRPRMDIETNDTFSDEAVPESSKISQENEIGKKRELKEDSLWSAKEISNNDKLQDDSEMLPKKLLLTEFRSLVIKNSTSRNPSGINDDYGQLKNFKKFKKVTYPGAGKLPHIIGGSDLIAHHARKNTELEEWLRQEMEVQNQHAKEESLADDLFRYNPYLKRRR

MDA-MB-231 [5] = experiment: Antiproliferative activity against human MDA-MB-231 cells assessed as reduction in Ki67 expression measured after 48 hrs by immunofluorescence analysis; type: functional, cell-based
MDA-MB-231 [6] = experiment: Antitumor activity against human MDA-MB-231 cells xenografted in NOD/SCID mouse assessed as reduction in tumor size at 5 to 15 mg/kg, ip administered at 3 days interval for 24 days and measured on day 25; type: functional, organism-based; settings: dose 5-15 mg/kg, time 25.0 day
MDA-MB-468 [7] = experiment: Induction of apoptosis in human MDA-MB-468 cells assessed as increase in late apoptotic cells measured after 48 hrs by Annexin V-FITC/propidium iodide staining based flow cytometry; type: functional, cell-based; settings: dose 5-20 µM, DDE = dose-dependent effect
MDA-MB-468 [8] = experiment: Induction of DNA damage in human MDA-MB-468 cells assessed as increase in gamma-H2AX accumulation measured after 48 hrs by immunofluorescence analysis; type: functional, cell-based
MDA-MB-231 [9] = experiment: Induction of DNA damage in human MDA-MB-231 cells assessed as reduction in BRCA2 expression measured after 6 to 48 hrs by Western blot analysis; type: functional, cell-based; settings: dose 5-20 µM, time 6-48 hrs, DDE = dose-dependent effect
MDA-MB-468 [10] = experiment: Cell cycle arrest in human MDA-MB-468 cells assessed as reduction in CDK2 expression measured after 48 hrs by Western blot analysis; type: functional, cell-based; settings: dose 5-20 µM, DDE = dose-dependent effect
MDA-MB-468 [11] = experiment: Inhibition of autophagy in human MDA-MB-468 cells assessed as increase in LC3B-II expression measured after 48 hrs by immunofluorescence analysis; type: functional, cell-based; settings: dose 5-20 µM
MDA-MB-231 [12] = experiment: Cell cycle arrest in human MDA-MB-231 cells assessed as increase in accumulation at S-phase at 5 to 20 uM measured after 48 hrs by propidium iodide staining based flow cytometry; type: functional; settings: dose 5-20 µM
MDA-MB-231 [13] = experiment: Induction of apoptosis in human MDA-MB-231 cells assessed as reduction in Bcl-2 expression measured after 48 hrs by Western blot analysis; type: functional, cell-based; settings: dose 5-20 µM, DDE = dose-dependent effect
MDA-MB-468 [14] = experiment: Induction of DNA damage in human MDA-MB-468 cells assessed as reduction in RAD51 expression measured after 6 to 48 hrs by Western blot analysis; type: functional, cell-based; settings: dose 5-20 µM, time 6-48 hrs, DDE = dose-dependent effect

O=C(NC1CCCCC1)c1[nH]cnc1-c1nc2ccccc2[nH]1
active: Activity (MDA-MB-231 [1]) Dde | inhibition (MDA-MB-231 [2]) Dde | Activity (MDA-MB-468 [3]) | inhibition (MDA-MB-468 [4]) | Activity (Nibrin (Homo sapiens)) | Activity (MDA-MB-231 [5]) | Activity (MDA-MB-231 [6]) | Activity (MDA-MB-468 [7]) Dde | Activity (MDA-MB-468 [8]) | Activity (MDA-MB-231 [9]) Dde | Activity (MDA-MB-468 [10]) Dde | inhibition (MDA-MB-468 [11]) | Activity (MDA-MB-231 [12]) | Activity (MDA-MB-231 [13]) Dde | Activity (MDA-MB-468 [14]) Dde
